Experimental data taken from patent publication US10087142B2, “Azetidine derivatives useful as modulators of cortical cathecolaminergic neurotransmission” (Integrative Research Laboratories Sweden AB, priority 2015, dated 2018).
Like-named read-outs stand apart in the source and are kept apart here. Marks after values point to notes of the source that are not given here.

Experiments:
DOPAC = assay: Neurochemistry: tissue levels of DOPAC in brain regions; assay type: in vivo, rat; details: 33 μmol/kg s.c., rats, 65 min before sacrifice, n = 5
Excerpt: The change in turnover of dopamine in the terminal areas of the ascending dopaminergic projections of the mammalian brain can be illustrated by measuring of changes in biochemical indices in the brain e.g. changes in concentrations of dopamine metabolites such as 3,4-dihydroxyphenyl-acetic acid (DOPAC) in the striatum and frontal cortex.
The measurement of the tissue content of DOPAC is well established in the field of research since the 1960's. In short, male Sprague-Dawley rats are administered the test compound 60 minutes prior to decapitation. The brain is rapidly taken out and dissected. The striatum is rapidly frozen and subsequently quantitatively analyzed with respect to its content of DOPAC by means of HPLC and electrochemical detection. The number of animals used for each test compound/vehicle is 5/group.
After the behavioural activity sessions, the rats were decapitated and their brains rapidly taken out and put on an ice-cold petri-dish. The brains were dissected into a right and a left part of which the right part was analyzed for neurochemicals with HPLC and the left part was analyzed for gene expression. The limbic forebrain, the striatum, the frontal cortex, the hippocampus and the remaining hemispheral parts of each rat were dissected and frozen. Each brain part was subsequently analyzed with respect to its content of monoamines and their metabolites.
The monoamine transmitter substances (NA (noradrenaline), DA (dopamine), 5-HT (serotonin)) as well as one corresponding acid, (DOPAC (3,4-dihydroxyphenylacetic acid), were quantified in brain tissue homogenates by HPLC separations and electrochemical detection.
The analytical method is based on two chromatographic separations dedicated for amines or acids. Two chromatographic systems share a common auto injector with a 10-port valve and two sample loops for simultaneous injection on the two systems. Both systems are equipped with a reverse phase column (Luna C18 (2), dp 3 μm, 50*2 mm i.d., Phenomenex) and electrochemical detection is accomplished at two potentials on glassy carbon electrodes (MF-1000, Bioanalytical Systems, Inc.). The column effluent is passed via a T-connection to the detection cell or to a waste outlet. This is accomplished by two solenoid valves, which block either the waste or detector outlet. By preventing the chromatographic front from reaching the detector, better detection conditions are achieved. The aqueous mobile phase (0.4 ml/min) for the acid system contains citric acid 14 mM, sodium citrate 10 mM, Methanol 15% (v/v) and EDTA 0.1 mM. Detection potentials relative to Ag/AgCl reference are 0.45 and 0.60V. […] Detection potentials relative to Ag/AgCl reference are 0.45 and 0.65V.

[1] = system: monoamine transmitters (NA, DA and 5-HT); assay: In vivo brain microdialysis of monoamines in striatum and frontal cortex; design: species or system rat; details: 50 μmol/kg s.c., rats; for response vs control in vivo at 50 µmol/kg: Rattus norvegicus, sc
Excerpt: The microdialysis technique (See, for instance, Collin and Ungerstedt, Microdialysis: user's guide, Carnegie Medicin, Stockholm, 1988) is a well-established technique for measuring extracellular levels of neurotransmitters (Ungerstedt, J Int Med, 1991, 230; 365-73). The microdialysis technique was used to measure the effect of compounds disclosed herein upon the efflux of monoamine transmitters (NA, DA and 5-HT) in striatum and frontal cortex in conscious, freely moving rats.
Male Sprague-Dawley rats weighing 280-320 g were used throughout the experiments. Before the experiment the animals were housed in groups, maximum five animals in each cage, with free access to water and food. The animals were housed at least one week prior to surgery and use in the experiments.
A modified version (Waters et al., J Neural Transm Gen Sect, 1994, 98(1); 39-55) of the I-shaped probe (Santiago and Westerink, N-S Arch Pharmacol, 1990, 342; 407-14) with the AN69 polyacrylonitrile/sodium methyl sulfonate copolymer (HOSPAL; o.d/i.d. 310/220 μm: dialysis membrane (Gambro, Lund, Sweden) was used in the microdialysis experiments. In the dorsal striatum, probes with an exposed length of 3 mm of dialysis membrane were used and in the prefrontal cortex the corresponding length was 2.5 mm. The rats were operated under isoflurane inhalation anesthesia while mounted into a Kopf stereotaxic instrument. Coordinates were calculated relative to bregma; dorsal striatum AP+1.0, ML±2.6, DV 6.2; Pf cortex, AP 15+3.2, ML+1.2, DV −4.08°, according to Paxinos and Watson (New York, Academic Press, 1986; FIG. 8 and FIG. 14). The dialysis probe was positioned in a burr hole under stereotaxic guidance and cemented with phosphatine dental cement (DAB Dental).
The rats were housed individually in cages for 48 h before the dialysis experiments, allowing them to recover from surgery and minimizing the risk of drug interactions with the anesthetics during the following experiments. During this period the rats had free access to food and water.
On the day of the experiment the rats were connected to a micro-perfusion pump via a swivel and were replaced in the cage where they could move freely within its confinements. The perfusion medium was a Ringer's solution containing (in mmol/I): NaCl; 140, CaCl2; 1.2, KCl; 3.0, MgCl2; 1.0 (Moghaddam and Bunney. Neurochem., 1989, 53; 652-4). The pump was set to a perfusion speed of 2 μl/min and 40 μl sample volume were collected every 20 min.
The rats were perfused for at least 40 min before sampling began. Five fractions of each 20 min were collected and the last three were used for the establishment of the baseline. After collection of baseline fractions, the pharmacological challenge to the dialysis experiment started. Test compounds were administrated by injection (s.c.) in a volume of 5 ml/kg, with 0.9% NaCl (saline) as vehicle.
The analytical method were based on two chromatographic separations dedicated for amines or acids. Two chromatographic systems shared a common auto injector with a 10-port valve and two sample loops for simultaneous injection on the two systems.
The acids were separated by reversed phase chromatography while the amines were separated by reversed phase ion pairing chromatography preceded by a reverse phase separation in a column switching configuration. Three separation columns (Luna C18 (2), dp 3 μm, 2 mm i.d., Phenomenex) of different lengths were used. Electrochemical detection was accomplished on glassy carbon electrodes (MF-1000, Bioanalytical Systems, Inc.)
The aqueous mobile phase (0.6 ml/min) for the acid system contained citric acid (40 mM, dipotassium hydrogen phosphate 10 mM, methanol 8-11% (v/v) and EDTA 0.1 mM. Column length was 30 mm and detection potential relative to Ag/AgCl reference was 0.74V. […]

## Fc1ccc(F)c(C(F)C2CNC2)c1.O=C(O)C(=O)O (stereo not drawn) [Example 6, 3-[(2,5-Difluorophenyl)(Fluoro)Methyl]Azetidine Oxalate Salt]
DOPAC; frontal cortex tissue
  DOPAC frontal cortex ± SEM: 139 ± 10% of control means
DOPAC; striatum tissue
  DOPAC striatum ± SEM: 76 ± 3% of control means
[1]; striatum dialysate
  NA Stri ± SEM, maximum effect compared to baseline: 1375^a percent of control
[1]; frontal cortex dialysate, read-out: 5-HT FC ± SEM, maximum effect compared to baseline
  response vs control in vivo at 50 µmol/kg: 182 ± 12%
[1]; striatum dialysate, read-out: 5-HT Stri ± SEM, maximum effect compared to baseline
  response vs control in vivo at 50 µmol/kg: 208%
[1]; striatum dialysate, read-out: DA Stri ± SEM, maximum effect compared to baseline
  response vs control in vivo at 50 µmol/kg: 242%
